Where “and” joins values, the source holds several entries; their conditions need not be identical. Equal values may be shown once.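 Where inhibition never reached the appropriate level, the endpoint shown equals the highest concentration tested. Otherwise, values were interpolated linearly from a five-concentration, 48-hour dose response in 96-well plates. Here, GI50 denotes the concentration required for 50% inhibition of growth. The concentration for full growth arrest is given as TGI.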
Legend:
Test in all cases: inhibition of tumour cell growth, NCI panel, 48 h
OVCAR-4 ovarian = system: OVCAR-4 ovarian
HS 578T breast = system: HS 578T breast
SN12C renal = system: SN12C renal
NCI/ADR-RES ovarian = system: NCI/ADR-RES ovarian
U251 CNS = system: U251 CNS
RPMI-8226 leukemia = system: RPMI-8226 leukemia
RXF 393 renal = system: RXF 393 renal
HT29 colon = system: HT29 colon
MCF7 breast = system: MCF7 breast
MDA-MB-435 = system: MDA-MB-435

In the case of O=C(Nc1ccccc1O)c1ccc(NS(=O)(=O)c2cccc3cccnc23)cc1, the GI50 (OVCAR-4 ovarian) is reported as 2.24 µM, the TGI (OVCAR-4 ovarian) is reported as 24.5 µM and the GI50 (HS 578T breast) is reported as 0.787 µM. The TGI (HS 578T breast) was 11.8 µM, the GI50 (SN12C renal) was 2.78 µM and the TGI (SN12C renal) was greater than 19.7 µM. The GI50 (NCI/ADR-RES ovarian) was 0.788 µM, the TGI (NCI/ADR-RES ovarian) was 5.96 µM and the GI50 (U251 CNS) was 1.3 µM. For the same compound, the TGI (U251 CNS) was 5.4 µM, the GI50 (RPMI-8226 leukemia) was 0.464 µM and the TGI (RPMI-8226 leukemia) was greater than 9.66 µM. The GI50 (RXF 393 renal) was 1.72 µM, the TGI (RXF 393 renal) was 5.81 µM and the GI50 (HT29 colon) was 1.18 µM. It also gave a TGI (HT29 colon) greater than 16 µM, a GI50 (MCF7 breast) of 0.941 µM and a TGI (MCF7 breast) greater than 18.2 µM. It also gave a GI50 (MDA-MB-435) of 0.806 µM and a TGI (MDA-MB-435) of 4.86 µM.

O=C(c1ccccc1)n1c(-c2ccccc2)cs/c1=N\S(=O)(=O)c1ccc(N2N=C3c4ccccc4CC3C2c2cccs2)cc1 (stereo unspecified) showed a GI50 (OVCAR-4 ovarian) greater than 100 µM, a TGI (OVCAR-4 ovarian) greater than 100 µM and a GI50 (HS 578T breast) of 17 µM. The TGI (HS 578T breast) was greater than 100 µM, the GI50 (SN12C renal) was 44.4 µM and the TGI (SN12C renal) was greater than 100 µM. The GI50 (NCI/ADR-RES ovarian) was greater than 100 µM, the TGI (NCI/ADR-RES ovarian) was greater than 100 µM and the GI50 (U251 CNS) was 32 µM. For the same compound, the TGI (U251 CNS) was greater than 100 µM, the GI50 (RPMI-8226 leukemia) was 32.3 µM and the TGI (RPMI-8226 leukemia) was greater than 100 µM. The GI50 (RXF 393 renal) was 37.1 µM, the TGI (RXF 393 renal) was greater than 100 µM and the GI50 (HT29 colon) was 73.7 µM. The TGI (HT29 colon) was greater than 100 µM, the GI50 (MCF7 breast) was greater than 100 µM and the TGI (MCF7 breast) was greater than 100 µM. It also gave a GI50 (MDA-MB-435) of 31.1 µM and a TGI (MDA-MB-435) greater than 100 µM.

Compound NNC(=O)c1ccc(OCc2nc3ccccc3[nH]2)cc1 has a TGI (OVCAR-4 ovarian) greater than 100 µM, a TGI (HS 578T breast) greater than 100 µM and a TGI (SN12C renal) greater than 100 µM. The TGI (NCI/ADR-RES ovarian) was greater than 100 µM, the TGI (U251 CNS) was greater than 100 µM and the TGI (RPMI-8226 leukemia) was greater than 100 µM. It also gave a TGI (RXF 393 renal) greater than 100 µM, a TGI (HT29 colon) greater than 100 µM and a TGI (MCF7 breast) greater than 100 µM. For the same compound, the TGI (MDA-MB-435) was greater than 100 µM.

Work on COc1cc(NCCN=C(N)NC(N)=NC(C)C)c2ncccc2c1 yielded a GI50 (OVCAR-4 ovarian) of 0.0708 µM, a TGI (OVCAR-4 ovarian) of 1.23 µM and a GI50 (HS 578T breast) of 13 µM. The TGI (HS 578T breast) was greater than 75.1 µM, the GI50 (SN12C renal) was 3.47 µM and the TGI (SN12C renal) was 18.2 µM. For the same compound, the GI50 (NCI/ADR-RES ovarian) was greater than 100 µM, the TGI (NCI/ADR-RES ovarian) was greater than 100 µM and the GI50 (U251 CNS) was 12.4 µM. It also gave a TGI (U251 CNS) greater than 100 µM, a GI50 (RPMI-8226 leukemia) of 15.5 µM and a TGI (RPMI-8226 leukemia) greater than 76.4 µM. For the same compound, the GI50 (RXF 393 renal) was greater than 38.5 µM, the TGI (RXF 393 renal) was greater than 100 µM and the GI50 (HT29 colon) was 7.91 µM. It also gave a TGI (HT29 colon) greater than 100 µM, a GI50 (MCF7 breast) of 0.0297 µM and a TGI (MCF7 breast) of 0.116 µM. It also gave a GI50 (MDA-MB-435) of 18.6 µM and a TGI (MDA-MB-435) of 41.9 µM.

For CN1CCN(CCOc2cc(OC3CCOCC3)c3c(Nc4c(Cl)ccc5c4OCO5)ncnc3c2)CC1, the GI50 (OVCAR-4 ovarian) was 13.5 µM and > 10 µM, the TGI (OVCAR-4 ovarian) was 34.7 µM and > 10 µM and the GI50 (HS 578T breast) was 0.732 µM and 1.7 µM. The TGI (HS 578T breast) was 11.2 µM and > 10 µM, the GI50 (SN12C renal) was 0.736 µM and 3.31 µM and the TGI (SN12C renal) was 27.2 µM and > 10 µM. The GI50 (NCI/ADR-RES ovarian) was 10.6 µM and 8.91 µM, the TGI (NCI/ADR-RES ovarian) was 56.8 µM and > 10 µM and the GI50 (U251 CNS) was 11.2 µM and > 10 µM. The TGI (U251 CNS) was 31.1 µM and > 10 µM, the GI50 (RPMI-8226 leukemia) was 19.4 µM and > 10 µM and the TGI (RPMI-8226 leukemia) was 63.4 µM and > 10 µM. The GI50 (RXF 393 renal) was 0.788 µM and 1.02 µM, the TGI (RXF 393 renal) was 12.6 µM and > 10 µM and the GI50 (HT29 colon) was 0.634 µM and 1.26 µM. For the same compound, the TGI (HT29 colon) was 5.47 µM and > 10 µM, the GI50 (MCF7 breast) was 4.72 µM and > 10 µM and the TGI (MCF7 breast) was 27.4 µM and > 10 µM. The GI50 (MDA-MB-435) was 13.5 µM and > 10 µM and the TGI (MDA-MB-435) was 27.2 µM and > 10 µM.

With Nc1nc(N)c2cc(Sc3cccc(C(F)(F)F)c3)ccc2n1 the TGI (OVCAR-4 ovarian) was 18.6 µM, the TGI (HS 578T breast) was 10.2 µM and the TGI (SN12C renal) was 15.7 µM. For the same compound, the TGI (NCI/ADR-RES ovarian) was 14.8 µM, the TGI (U251 CNS) was 4.78 µM and the TGI (RPMI-8226 leukemia) was 5.43 µM. The GI50 (RXF 393 renal) was 1.01 µM, the TGI (RXF 393 renal) was 2.53 µM and the TGI (HT29 colon) was 8.16 µM. It also gave a TGI (MCF7 breast) of 16.2 µM and a TGI (MDA-MB-435) of 5.81 µM.

Compound Cc1ccc(-c2nc(-c3cn(C)c4ncccc34)cs2)cc1 has a GI50 (OVCAR-4 ovarian) of 12.8 µM, a TGI (OVCAR-4 ovarian) of 46.4 µM and a GI50 (HS 578T breast) of 4.71 µM. For the same compound, the TGI (HS 578T breast) was 26.6 µM, the GI50 (SN12C renal) was 5 µM and the TGI (SN12C renal) was 22.8 µM. The GI50 (NCI/ADR-RES ovarian) was 1.42 µM, the TGI (NCI/ADR-RES ovarian) was 6.8 µM and the GI50 (U251 CNS) was 4.4 µM. For the same compound, the TGI (U251 CNS) was 17 µM, the GI50 (RPMI-8226 leukemia) was 7.37 µM and the TGI (RPMI-8226 leukemia) was greater than 69.8 µM. It also gave a GI50 (RXF 393 renal) of 2.99 µM, a TGI (RXF 393 renal) of 13.7 µM and a GI50 (HT29 colon) of 2.32 µM. It also gave a TGI (HT29 colon) of 8.51 µM, a GI50 (MCF7 breast) of 2.39 µM and a TGI (MCF7 breast) of 15.9 µM. For the same compound, the GI50 (MDA-MB-435) was 0.402 µM and the TGI (MDA-MB-435) was 2.88 µM.

In the case of C[C@@H]1COCCN1c1cc(C2([S@@](C)(=N)=O)CC2)nc(-c2ccnc3[nH]ccc23)n1, the GI50 (OVCAR-4 ovarian) is reported as 3.41 µM, the TGI (OVCAR-4 ovarian) is reported as 63.9 µM and the GI50 (HS 578T breast) is reported as 3.73 µM. For the same compound, the TGI (HS 578T breast) was 34.9 µM, the GI50 (SN12C renal) was 6.02 µM and the TGI (SN12C renal) was greater than 100 µM. It also gave a GI50 (NCI/ADR-RES ovarian) of 33.9 µM, a TGI (NCI/ADR-RES ovarian) greater than 100 µM and a GI50 (U251 CNS) of 12.3 µM. It also gave a TGI (U251 CNS) greater than 100 µM, a GI50 (RPMI-8226 leukemia) of 6.21 µM and a TGI (RPMI-8226 leukemia) greater than 60.9 µM. The GI50 (RXF 393 renal) was 2.34 µM, the TGI (RXF 393 renal) was 9.68 µM and the GI50 (HT29 colon) was 6.41 µM. It also gave a TGI (HT29 colon) greater than 100 µM, a GI50 (MCF7 breast) of 0.956 µM and a TGI (MCF7 breast) greater than 100 µM. It also gave a GI50 (MDA-MB-435) of 5.27 µM and a TGI (MDA-MB-435) greater than 100 µM.

— PubChem BioAssay (NCI)
